Results: US20180353457A1, “ABIETANE DITERPENOID 7-ACETOXYROYLEANONES FOR USE IN CANCER TREATMENT” (University of South Carolina, priority 2017, published 2018)

Assays:
[1] = test system: SK-OV-3 (ovarian adenocarcinoma) cells; test: MTS cytotoxicity assay, SK-OV-3; format: cell-based; details: SK-OV-3 cells
Text: (§1) Human cell lines used included MG-63 (osteosarcoma), SK-OV-3 (ovarian adenocarcinoma), MDA-MB-231 (breast adenocarcinoma derived from a metastatic site), HCT 116 (colorectal carcinoma), HCT 116/200 (an FdUrd resistant subclone of HCT 116 cells), and A2780ADR (a doxorubicin resistant subclone of the ovarian carcinoma A2780). All cells were stored in liquid nitrogen until use. MG-63, SK-OV-3, MDA-MB-231, and HCT 116 cell lines were all obtained from ATCC. A2780ADR cells were obtained from Sigma-Aldrich. HCT 116/200 cells were obtained from Dr. Franklin G. Berger from the Center for Colon Cancer Research. MG-63 cells were maintained in MEM medium (Corning) supplemented with 10% Fetal Bovine Essence (VWR) and 1% penicillin/streptomycin solution (Corning). SK-OV-3 cells were maintained in McCoy's 5A Medium (Sigma) supplemented with Fetal Bovine Essence and 1% penicillin/streptomycin. […]
(§2) Cells were first grown to approximately 80% confluency within […] tissue culture flasks (VWR). […] Cells were counted using a hemocytometer and their viability was confirmed using trypan blue (Gibco). […]
(§3) In combination studies, 7-acetoxyroyleanone and FdUrd were first mixed into the same media and then added to the cells. […] The cells were incubated for 2 hours, and the absorbance of each well at 490 nm was measured using a Spectramax 190 microplate reader.

[2] = test system: MDA-MB-231 (breast adenocarcinoma) cells; test: MTS cytotoxicity assay, MDA-MB-231; format: cell-based; details: MDA-MB-231 cells
Text: as §1, §2, §3

[3] = test system: A498 (renal cancer) cells; test: NCI-60 five dose screen, A498; details: read-out: LC50; A498, Renal
[4] = test system: RXF 393 (renal cancer) cells; test: NCI-60 five dose screen, RXF 393; details: read-out: LC50; RXF 393, Renal
[5] = test system: MDA-MB-435 (melanoma) cells; test: NCI-60 five dose screen, MDA-MB-435; details: read-out: LC50; MDA-MB-435, Melanoma
[6] = 48 and 72 hours of exposure, MTS

How did the “cell death at the lowest concentration tested” value ([1]; 1 μg/mL) turn out when CC(=O)O[C@@H]1C[C@H]2C(C)(C)CCC[C@]2(C)C2=C1C(=O)C(C(C)C)=C(O)C2=O [7-acetoxyroyleanone] was run?
Its value is “cell death was indicated”.

And the “cytotoxicity (percent viability)” value [1, 6]?
The value was “significant cytotoxic properties”.

What about the “cell death at the lowest concentration tested” value ([2]; 1 μg/mL) of the same compound?
Its value is “cell death was indicated”.

And the “cytotoxicity (percent viability)” value [2, 6]?
The value was “significant cytotoxic properties”.

What about the CC50 [3] of the same compound?
Its CC50 is 5.19 µM.

And the CC50 [4]?
The CC50 was 5.87 µM.

And the CC50 [5]?
Its CC50 is 5.87 µM.
